{"source": "paper PMC5803421", "about": "(International journal of pharmaceutics, 2017)", "tested_on": "anesthetized acute SCI female rats (bladder pressure)", "assay": "Isovolumetric cystometry in anesthetized acute spinal cord injured rats", "assay_type": "in vivo, rat", "details": "antagonist 1 mg/kg i.v. after ODT LMN-NKA (4.6 mg/kg)"}
{"smiles": "COC1(C[S@@+]([O-])c2ccccc2)CCN(CCc2c[nH]c3ccc(F)cc23)CC1", "note": "[GR 159898]", "values": [{"measurement": "effect on LMN-NKA ODT mediated increase in bladder pressure", "value": "readily reversed"}]}
